Consider four compounds from US9301951B2 (Ardelyx, Inc., priority 2010, dated 2016).

Data set [1] can be described thus: Stability of compounds in simulated gastric fluid (SGF). The data set is classed as in vitro ADME. The settings on record: simulated gastric fluid (USP, 3 mg/mL pepsin), 1-20 μM, incubation time 6 hr, relative to t=0. As for the experimental part:
(§1) Test compounds were incubated at 1-20 μM in simulated gastric fluid (SGF; standard USP solution with 3 mg/mL pepsin) or simulated intestinal fluid (SIF; standard USP solution with 3 mg/mL pancreatin) for 3 hr or 6 hr. HPLC-UV or HPLC-MS were used to determine test compound levels using peak area %. Results (Table 14) were reported as the percentage of test compound remaining after incubation in a given condition relative to test compound present at t=0 in the same condition.

A short description of data set [2]: Stability of compounds in simulated intestinal fluid (SIF). It is filed as in vitro ADME. The following applies: simulated intestinal fluid (USP, 3 mg/mL pancreatin), 1-20 μM, incubation time 6 hr, relative to t=0. How it is done: as §1
For the next data set, the target named is T1, rat NaP2b (SLC34A2) (Rattus norvegicus, UniProt Q9JJ09).
T1 construct: host or cells: HEK293
T1 sequence (Q9JJ09 1-695): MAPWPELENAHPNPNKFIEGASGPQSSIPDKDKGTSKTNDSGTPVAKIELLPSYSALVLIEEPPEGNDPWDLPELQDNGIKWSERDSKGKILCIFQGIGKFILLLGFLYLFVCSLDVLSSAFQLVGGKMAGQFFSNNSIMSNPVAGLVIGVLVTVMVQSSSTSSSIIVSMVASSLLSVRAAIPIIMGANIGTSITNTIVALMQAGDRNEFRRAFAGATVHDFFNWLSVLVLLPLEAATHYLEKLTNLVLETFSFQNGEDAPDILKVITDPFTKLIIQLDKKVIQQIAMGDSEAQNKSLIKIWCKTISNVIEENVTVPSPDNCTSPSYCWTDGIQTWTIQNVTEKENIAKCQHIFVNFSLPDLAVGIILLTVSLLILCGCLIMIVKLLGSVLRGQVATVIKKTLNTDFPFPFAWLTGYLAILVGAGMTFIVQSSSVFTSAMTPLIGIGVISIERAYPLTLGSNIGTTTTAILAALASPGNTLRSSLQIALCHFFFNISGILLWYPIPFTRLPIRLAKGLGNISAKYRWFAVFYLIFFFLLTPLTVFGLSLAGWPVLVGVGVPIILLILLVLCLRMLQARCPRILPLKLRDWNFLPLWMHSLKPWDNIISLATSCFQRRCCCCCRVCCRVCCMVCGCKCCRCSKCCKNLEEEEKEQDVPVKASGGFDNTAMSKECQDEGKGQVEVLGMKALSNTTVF
Put plainly: Inhibition of NaP2b-mediated Pi (33P) uptake in transfected HEK293 cells, rat NaP2b. The settings on record: HEK293 cells transfected with rat NaP2b, 100 uM phosphate, 0.1 nM to 30 uM, read-out: pIC50 range for rat Nap2b (converted). The data set is classed as cell-based. The procedure, abridged: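 HEK293 cells transiently transfected with rat NaP2b; 33P-phosphate uptake measured in sodium or choline buffer (100 uM KH2PO4, PiT-silencing agent, pH 7.4) with compound at twelve concentrations, 0.1 nM–30 uM, in duplicate. Lysed cells counted by scintillation; pIC50 derived from concentration-response.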

A short description of data set [3]: Fecal recovery of orally administered compounds. It is filed as in vivo. The following applies: rat; oral gavage; feces collected until 48 hr after dosing. The text has this: In this respect, it is understood that a recovered compound can include the sum of the parent compound and its metabolites derived from the parent compound, e.g., by means of hydrolysis, conjugation, reduction, oxidation, N-alkylation, glucuronidation, acetylation, methylation, sulfation, phosphorylation, or any other modification that adds atoms to or removes atoms from the parent compound, wherein the metabolites are generated via the action of any enzyme or exposure to any physiological environment including, pH, temperature, pressure, or interactions with foodstuffs as they exist in the digestive milieu. Measurement of fecal recovery of compound and metabolites can be carried out using standard methodology. For example, compound can be administered orally at a suitable dose (e.g., 10 mg/kg) and feces are then collected at predetermined times after dosing (e.g., 24 hours, 48 hours, 72 hours). Parent compound and metabolites can be extracted with organic solvent and analyzed quantitatively using mass spectrometry. A mass balance analysis of the parent compound and metabolites (including, parent=M, metabolite 1 [M+16], and metabolite 2 [M+32]) can be used to determine the percent recovery in the feces.
Quantitative determination of test compound level in feces after oral gavage was performed using the same set of animals used to determine test compound concentration in plasma (Example 352). The animals were kept in metabolic cages and feces were collected from the time of dosing until 48 hr after dosing. Upon collection, feces were dried by lyophilization and ground to a visually homogenous powder. Duplicate samples of ground feces from each individual animal were weighed out and extracted using organic solvent. Extracted samples were then diluted into mobile phase and test compound levels were quantitatively determined by LC-MS/MS analysis as described in Example 352 except that the standard curve was prepared in a feces matrix. Extraction conditions were not optimized for individual compounds, and thus may represent a minimal level of recovery.

The next data set has as its system Sprague-Dawley rats. Description: In vivo co-dosing in chow (urine P out / P consumed). The following applies: feed or water; rat; drug in chow, nominal 100 mg/kg/day (mean dose per line in table); urine 24-96 h; read-out: Mean % inhibition Urine Pout/P consumed. The text has this: Male, 7-week-old Sprague-Dawley rats (Charles-River laboratories international, Hollister, Calif.) were allowed to acclimate for a minimum of 3 days. The experiment was initiated by switching animals to a synthetic diet (0.6% phosphorus and 0.6% calcium, Harlan Teklad TD.84122) for four days. After this time, the animals were placed into metabolic cages for daily monitoring of food and water consumption, as well as urine and fecal collections. Test compounds were incorporated into the powdered diet listed above containing 3% chocolate flavoring (w/w, BioServ #7345) at 1.3 mg test compound per gram of diet to achieve an average daily nominal dose of 100 mg/kg/day. The actual dose received by each animal was later determined by measuring prepared diet consumption and body weight. Urine samples were collected in three daily periods from 24-48, 48-72, and 72-96 hours of drug dosing. […] Phosphorus levels in the urine were determined by anion exchange chromatography using a Dionex ICS-3000 ion chromatography system. […] Elution of urine phosphate ions was monitored via conductivity detector and reported as ppm relative to a standard ion solution containing phosphate. Daily urinary P output relative to the P consumed in the prepared diet for each animal was calculated. […] The differences between the means of control and treated groups were evaluated by t tests. […]

The target of another data set is T2, human NaP2b (SLC34A2) (Homo sapiens, UniProt O95436).
T2 construct: host or cells: HEK293
T2 sequence (O95436 1-690): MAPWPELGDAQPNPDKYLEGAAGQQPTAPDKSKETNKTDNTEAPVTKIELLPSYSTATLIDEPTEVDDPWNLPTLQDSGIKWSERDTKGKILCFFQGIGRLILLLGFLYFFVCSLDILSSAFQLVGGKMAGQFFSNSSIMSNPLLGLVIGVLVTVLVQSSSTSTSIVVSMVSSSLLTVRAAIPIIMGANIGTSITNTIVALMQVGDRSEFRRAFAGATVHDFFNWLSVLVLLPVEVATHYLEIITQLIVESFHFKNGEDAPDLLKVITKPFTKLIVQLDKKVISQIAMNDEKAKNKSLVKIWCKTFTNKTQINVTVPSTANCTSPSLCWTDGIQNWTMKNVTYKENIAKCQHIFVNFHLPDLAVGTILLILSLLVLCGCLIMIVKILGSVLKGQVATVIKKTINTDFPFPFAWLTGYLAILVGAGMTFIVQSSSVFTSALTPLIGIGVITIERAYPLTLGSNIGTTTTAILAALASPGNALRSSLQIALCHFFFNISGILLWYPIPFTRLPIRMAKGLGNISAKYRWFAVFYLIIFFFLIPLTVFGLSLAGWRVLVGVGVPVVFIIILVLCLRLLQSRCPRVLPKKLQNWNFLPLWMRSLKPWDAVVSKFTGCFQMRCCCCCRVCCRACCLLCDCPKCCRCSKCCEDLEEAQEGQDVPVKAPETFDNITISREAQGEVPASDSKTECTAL
Put plainly: Inhibition of NaP2b-mediated Pi (33P) uptake in transfected HEK293 cells, human NaP2b. The settings on record: HEK293 cells transfected with human NaP2b, 100 uM phosphate, 0.1 nM to 30 uM, read-out: pIC50 range for human NaP2b (converted). The data set is classed as cell-based. How it is done: HEK293 cells were obtained from the American Type Culture collection and propagated per their instructions. Expression clones for rat and human NaP2b (SLC34A2) were obtained from Open Biosystems (Catalog numbers MRN1768-9510282, and MHS1010-99823026, respectively). The sequence of the human protein was mutated to insert a threonine after residue 37, and to introduce a N39D mutation.
The rate of phosphate (Pi) uptake into HEK293 cells was measured using a modification of the method described by Mohrmann et al. (Mohrmann, I., Mohrmann, M., Biber, J., and Murer, H. (1986) Am. J. Phys. 250(3 Pt 1):G323-30.) Transfected HEK293 cells were treated with a pharmacological agent to minimize endogenous PiT-mediated phosphate transport activity, such that the only remaining sodium-dependent phosphate transport activity is that which was bestowed by introduction of the NaP2b genes.
Cells were seeded into 96-well plates at 25,000 cells/well and cultured overnight. Lipofectamine 2000 (Invitrogen) was used to introduce the NaP2b cDNA, and the cells were allowed to approach confluence during a second overnight incubation. […] Cells were then overlayed with either choline uptake buffer or sodium uptake buffer (14 mM Tris, 137 mM sodium chloride, 5.4 mM KCl, 2.8 mM CaCl2, 1.2 mM MgSO4, 100 uM KH2PO4, PiT-silencing agent, 1 mg/mL Bovine Serum Albumin, pH 7.4) containing 6-9 uCi/mL ^33P orthophosphoric acid (Perkin Elmer) and test compound. Each compound was tested at twelve concentrations ranging from 0.1 nM to 30 uM. Assays were run in duplicate.
After incubation for 3-30 minutes at room temperature, assay mixtures were removed, and the cells were washed twice with ice cold stop solution (137 mM sodium chloride, 14 mM Tris, pH 7.4). Cells were lysed by addition of 20 μL 0.1% Tween 80 followed by 100 μL scintillation fluid, and counted using a TopCount (Perkin Elmer).
pIC50 (the negative log of the […]) values of the test compounds were calculated using GraphPad Prism.

The conditions of data set [4]: human absorption; cited from earlier work.
A short description of data set [5]: Determination of compound Cmax and AUC in plasma after oral gavage. It is filed as in vivo, rat. The following applies: Sprague-Dawley rats, actual oral dose 3-15 mg/kg, 0.5-4 h. As for the experimental part:
Sprague-Dawley rats were orally gavaged with test article at a nominal dose of 2.5 or 10 mg/kg and blood was collected at 0.5, 1, 2 and 4 h. Blood samples were processed to plasma using K2EDTA as an anticoaglulant. Plasma samples were treated with acetonitrile containing an internal standard, precipitated proteins removed by centrifugation. Supernatants were analyzed by LC-MS/MS and compound concentrations were determined by interpolation from a standard curve prepared in plasma. All compounds were orally dosed at the dosage shown, and pharmacokinetic parameters determined.

By AUC is commonly meant concentration integrated over time. In general, Cmax refers to the maximum level reached in the sampled fluid or tissue.

Where only a bound is given, the exact number is not on record here.

In the case of `CN(CCN1CCOCC1)C(=O)c1cccc(C(=O)Nc2ccc(OC3CCC3)cc2-c2cc(C(=O)NCc3cccc(C(F)(F)F)c3)ccn2)c1` [Example 26, N1-(4-Cyclobutoxy-2-(4-((3-(trifluoromethyl)benzyl)carbamoyl)pyridin-2-yl)phenyl)-N3-methyl-N3-(2-morpholinoethyl)isophthalamide], the “% remaining, SGF” value in data set [1] is listed as more than 80%. Also, the “% remaining, SIF” value in data set [2] is on record as 60-80%. In addition, at rat NaP2b (SLC34A2), the IC50 is 1 to 7.94 µM. Also, the “% recovered in feces” value in data set [3] was less than 20%.

Turning to `CN(CCN1CCOCC1)C(=O)c1cccc(C(=O)Nc2ccc(N3CCCCC3)cc2-c2cc(C(=O)N[C@H]3CCCc4ccccc43)ccn2)c1` [Example 37, (S)—N1-Methyl-N1-(2-morpholinoethyl)-N3-(4-(piperidin-1-yl)-2-(4-((1,2,3,4-tetrahydronaphthalen-1-yl)carbamoyl)pyridin-2-yl)phenyl)isophthalamide], the IC50 on rat NaP2b (SLC34A2) and on human NaP2b (SLC34A2) was less than 1 µM each time. Further, the inhibition in vivo at 100 mg/kg/day in the data set on Sprague-Dawley rats was not above 10%.

`Cc1cc(=O)n(-c2ccccc2)n1C` [phenazone]: the “% FA” value in data set [4] was 97%.

“(S)-2-(5-(diethylamino)-2-(3-(27-oxo-2,5,8,11,14,17,20,23,30,33,36,39-dodecaoxa-42-thia-26-azatritetracontan-43-yl)benzamido)phenyl)-N-(1,2,3,4-tetrahydronaphthalen-1-yl)isonicotinamide [Example 157.1]”: in data set [5], the exposure (AUC) was less than 30 ng·h/mL and the Cmax is listed as less than 10 ng/mL.
